Measured values published in patent publication US20260216179A1, “1,5-NAPHTHYRIDINE DERIVATIVES AS KRAS ONCOPROTEIN INHIBITORS” (Beta Pharma, Inc., priority 2022, published 2026).
Like-named read-outs stand apart in the source and are kept apart here. Values belong to the compound of their own block, whether it stands above or below them.

Tests used:
KRAS G12C [1] = molecular target: T1, KRAS G12C (Homo sapiens, UniProt P01116, G12C); assay: NanoBRET target engagement cellular assay in transiently transfected HEK293 cells; type: cell-based; set-up: expressed in transfected cells; host or cells: HEK293, transiently transfected; settings: RAS tracer K2 1 μM, 2 hours at 37° C.
Description: KRAS G12C cellular activity was determined in a target engagement cellular assay (NanoBRET™) in transiently transfected HEK293 cells by Reaction Biology Corporation (RBC), 1 Great Valley Parkway, Suite 2 Malvern, PA 19355, USA. HEK293 were cultivated to 70-80% confluence prior to the assay followed by trypsinizing and collection of the cells. BI-2852 was used as the KRAS G12C reference compound. Each test compound solution was delivered from a compound source plate to the wells of 384-well white non-binding surface plate by an Echo 550 prior to the assay.
A 10 μg/mL solution of DNA in Opti-MEM was prepared without serum that consisted of 1 μg LgBiT®-KRAS (G12C)-NanoLuc fusion vector, 1 μg SmBIT®-KRAS (G12C)-NanoLuc fusion vector and 8 μg transfection carrier DNA. This mixture was subsequently treated with 30 μL of FuGENE HD Transfection Reagent into each milliliter of DNA mixture to form a lipid: DNA complex. The resulting mixture was then gently mixed by inversion and incubated at ambient temperature for 20 minutes to allow complexes to form. A mixture of 1 part of lipid: DNA complex with 20 parts of suspended HEK293 cells was added to a sterile conical tube and mixed gently by inversion. The cells+lipid: DNA complex mixture was then added to a sterile tissue culture dish and incubated for 24 hours. The medium was removed from the dish via aspiration followed by trypsinizing and allowing the cells to dissociate from the tissue culture dish. The trypsin was subsequently neutralized by using medium containing serum and centrifugation at 200×g for 5 minutes to pellet the cells in the conical tube. The cell density was adjusted to 2×10^5 cells/mL in Opti-MEM without phenol red. One part of Complete 20× NanoBRET™ RAS Tracer Reagent was dispensed to 20 parts of cells in the conical tube and mixed gently by inversion. The resulting cell suspension was dispensed into a white, 384-well NBS plate containing the test compounds (starting at 10 μM, 10-dose with 3-fold dilution) at 37° C., 5% CO2 for 2 hours. The final concentration for RAS tracer K2 was 1 μM. […]
Freshly prepared substrate solution (3×) in the assay medium was added to each well of the 384-well NBS plate and incubated for 3 minutes at room temperature. The donor emission wavelength (460 nm) and acceptor emission wavelength (600 nm) were measured using an Envision 2104 plate reader. […] The BRET ratio was calculated using the following equation: BRET Ratio= [(Acceptor sample÷Donor sample)−(Acceptor no-tracer control[…]Donor no-tracer control)]. The normalized BRET response (%) was calculated by the following equation: (BRET ratio of test compound/BRET ratio of DMSO control)*100%. The IC50 curves were plotted and IC50 values were calculated with GraphPad Prism 4 based on a sigmoidal dose-response equation.
Target sequence in this assay (P01116 1-186 isoform P01116-2 G12C limits assumed): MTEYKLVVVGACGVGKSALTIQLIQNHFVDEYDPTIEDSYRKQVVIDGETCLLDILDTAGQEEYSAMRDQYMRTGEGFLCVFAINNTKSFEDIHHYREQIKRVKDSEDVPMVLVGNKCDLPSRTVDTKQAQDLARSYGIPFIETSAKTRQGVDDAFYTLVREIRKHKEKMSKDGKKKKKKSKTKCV
Target sequence in this assay (P01116 1-186 isoform P01116-2 G12C limits assumed): as above

KRAS G12C [2] = molecular target: T1, KRAS G12C; assay: KRAS G12C/SOS1 nucleotide exchange assay (Bodipy-GDP to GTP exchange); type: biochemical; set-up: KRAS G12C or KRAS G12D (aa 2-169, expressed in E. coli); His-tag (TEV cleavable) (N); purchased Reaction Biology Corporation (RBC), which ran the assay MSC-11-502 (SOS1 only; none given for KRAS); host or cells: E. coli; settings: SOS1-mediated Bodipy-GDP/KRAS G12C exchange; dRFU analysis method for covalent inhibitors; 30 min pre-incubation at RT; 0.5% DMSO
Description: (§1) The biological activity of the Examples was determined in a KRAS
(§2) The assay evaluates the SOS1-mediated Bodipy-GDP to GTP exchange observed with KRAS G12C and KRAS G12D.
(§3) Reaction Buffer: 40 mM HEPES 7.4, 10 mM MgCl2, 1 mM DTT 0.002% Triton X100, 0.5% DMSO.
(§4) • 1. Deliver 10 μL of 1.5× KRAS solution in freshly prepared reaction buffer to reaction wells. • 2. Deliver compounds in 100% DMSO into buffer using acoustic technology (Echo550; nanoliter range). • 3. Incubate compounds with KRAS for 30 minutes at room temperature. • 4. Prepare 3× (SOS1+GTP) solution in reaction buffer. • 5. Deliver 5 μL of SOS1+GTP solution into reactions wells (deliver GTP only to column 1 for no SOS1 control). • 6.
Data Analysis: The fluorescence data was normalized using the equation below and fitted to “one phase exponential decay” equation using GraphPad prism software. The plateau was fixed to zero (use for non-covalent inhibitors) and rate ×1000 was used to calculate the IC50 values.
(§5) where Yraw is defined as fluorescence at time t, Ao is the average initial fluorescence with no SOS1, and Mis the minimum fluorescence at the end of the reaction at the maximum SOS1.
The background subtracted signals (no SOS1 protein wells were used as background) were converted to % activity relative to DMSO controls. Data was analyzed using GraphPad Prism 4 with “sigmoidal dose-response (variable slope)”; 4 parameters with Hill Slope. The constraints were bottom (constant equal to 0) and top (must be less than 120).
Target sequence in this assay (P01116 2-169 G12C): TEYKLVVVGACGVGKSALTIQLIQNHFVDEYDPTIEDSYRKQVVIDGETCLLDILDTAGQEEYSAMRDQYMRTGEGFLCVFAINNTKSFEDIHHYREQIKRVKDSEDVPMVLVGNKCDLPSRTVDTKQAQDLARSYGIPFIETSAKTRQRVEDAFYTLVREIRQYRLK

KRAS G12D = molecular target: T2, KRAS G12D (Homo sapiens, UniProt P01116, G12D); assay: KRAS G12D/SOS1 nucleotide exchange assay (Bodipy-GDP to GTP exchange); type: biochemical; settings: SOS1-mediated Bodipy-GDP/KRAS G12D exchange; rate constant method (plateau = 0) for reversible inhibitors; 30 min pre-incubation at RT; 0.5% DMSO
T2 construct: KRAS G12C or KRAS G12D (aa 2-169, expressed in E. coli); His-tag (TEV cleavable) (N); purchased Reaction Biology Corporation (RBC), which ran the assay MSC-11-502 (SOS1 only; none given for KRAS); host or cells: E. coli
T2 sequence (P01116 2-169 G12D): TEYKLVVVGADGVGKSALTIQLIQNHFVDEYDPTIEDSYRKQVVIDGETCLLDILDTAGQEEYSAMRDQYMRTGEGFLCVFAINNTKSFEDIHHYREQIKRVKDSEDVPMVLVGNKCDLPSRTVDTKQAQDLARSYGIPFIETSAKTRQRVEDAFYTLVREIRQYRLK
Description: as §1, §2
The compound pre-incubation time was 30 min at RT and the curve fits were performed when the activities at the highest concentration of compounds were less than 65%.
as §3
as §4, with “Deliver 5 μL of SOS1+GTP solution into reactions wells (deliver GTP only to column 1 for no SOS1 control). • 6.” left out
Data Analysis: The fluorescence data was normalized using the equation below and fitted to “one phase exponential decay” equation using GraphPad prism software. […]
as §5
The background subtracted signals (no SOS1 protein wells were used as background) were converted to % activity relative to DMSO controls. Data was analyzed using GraphPad Prism 4 with “sigmoidal dose-response (variable slope)”; 4 parameters with Hill Slope. […]

[3] = PK profile in male CD1 mice; type: in vivo; settings: for MRT inf: read-out: MRT0-inf; for MRT last: read-out: MRT0-last
Excerpt: PK Profile in male CD1 mice:

MIA PaCa-2 cells = assay: CellTiter-Glo viability assay; type: cell-based; settings: Homo sapiens, 72 hours, read-out: CTG Assay IC50 Values
Description: The reference compound staurosporine was purchased from Sigma-Aldrich (Saint Louis, MI). CellTiter-Glo® 2.0 Luminescent cell viability assay reagent was purchased from Promega (Madison, WI). MIA PaCa-2 cell line was purchased from American Type Culture Collection (Manassas, VA). MIA PaCa-2 cells were cultured in DMEM containing 10% FBS, 2.5% horse serum, 100 μg/ml of penicillin and 100 μg/ml of streptomycin. Cultures were maintained at 37° C. in a humidified atmosphere of 5% CO2 and 95% air.
Test compounds and reference compound, staurosporine, were diluted in DMSO solution with 10-dose and 3-fold dilution in a source plate starting at 10 mM. • 2. 25 nL of test compounds or 25 nL of staurosporine was delivered from the source plate to each well of the 384-well cell culture plate by Echo 550. • 3. 25 μL of culture media containing 2000 cells was added to each of the wells of the cell culture plate in duplicate. • 4. The cells were incubated with the compounds at 37° C., 5% CO2 for 72 hours. • 5. […] Luminescence was recorded by Envision 2104 Multilabel Reader (PerkinElmer, Santa Clara, CA). The number of viable cells in culture was determined based on quantitation of the ATP present in each culture well. • 8. The IC50 curves were plotted and IC50 values were calculated using the GraphPad Prism 4 program based on a sigmoidal dose-response equation

[4] = 3 mg/kg, i.v., single dose, mean plasma
[5] = 30 mg/kg, p.o., single dose, mean plasma
[6] = mouse, iv, 3 mg/kg, i.v., single dose, mean plasma
[7] = mouse, iv, 3 mg/kg, single dose, mean plasma
[8] = mouse, po, 30 mg/kg, p.o., single dose, mean plasma
[9] = mouse, po, 30 mg/kg, single dose, mean plasma

IC50 (KRAS G12C [1]): 320 nM
SMILES: Cn1cnc(Cn2ccc3ccc(CNCc4[nH]c5ccccc5c4[C@H]4NC(=O)c5ccc(O)cc54)cc32)c1 [BI-2852, reference compound]

IC50 (KRAS G12C [1]): 4.4 nM
IC50 (KRAS G12C [2]): 38 nM
SMILES: C=CC(=O)N1CCN(c2cc(OC[C@@H]3CCCN3C)nc3cc(-c4cccc5cccc(Cl)c45)cnc23)C[C@@H]1CC#N [Example 1, 2-((S)-1-Acryloyl-4-(7-(8-chloronaphthalen-1-yl)-2-(((S)-1-methylpyrrolidin-2-yl)methoxy)-1,5-naphthyridin-4-yl)piperazin-2-yl)acetonitrile]

IC50 (KRAS G12C [2]): 130 nM
SMILES: C=C(F)C(=O)N1CCN(c2cc(OC[C@@H]3CCCN3C)nc3cc(-c4cccc5cccc(Cl)c45)cnc23)C[C@@H]1CC#N [Example 2, 2-((S)-4-(7-(8-Chloronaphthalen-1-yl)-2-(((S)-1-methylpyrrolidin-2-yl)methoxy)-1,5-naphthyridin-4-yl)-1-(2-fluoroacryloyl)piperazin-2-yl)acetonitrile]

IC50 (KRAS G12D): 1500 nM
SMILES: CC(=O)c1c(F)ccc2cc(O)cc(-c3cnc4c(N5C[C@H]6CC[C@@H](C5)N6)cc(OC[C@@]56CCCN5C[C@H](F)C6)nc4c3)c12 [Example 3, 1-(8-(8-((1R,5S)-3,8-Diazabicyclo[3.2.1]octan-3-yl)-6-(((2R,7aS)-2-fluorotetrahydro-1H-pyrrolizin-7a(5H)-yl)methoxy)-1,5-naphthyridin-3-yl)-2-fluoro-6-hydroxynaphthalen-1-yl)ethan-1-one]

IC50 (KRAS G12D): 1000 nM
SMILES: Oc1cc(-c2cnc3c(N4C[C@H]5CC[C@@H](C4)N5)cc(OCC45CCCN4CCC5)nc3c2)c2ccccc2c1 [Example 4, 4-(8-((1R,5S)-3,8-Diazabicyclo[3.2.1]octan-3-yl)-6-((tetrahydro-1H-pyrrolizin-7a(5H)-yl)methoxy)-1,5-naphthyridin-3-yl)naphthalen-2-ol]

IC50 (KRAS G12C [1]): < 0.5 nM
AUCExtra [3, 4]: 2.52%
AUMCExtra [3, 4]: 14.3%
Tlast [3, 4]: 8.00 h
AUCExtra [3, 5]: 0.315%
AUMCExtra [3, 5]: 1.85%
Tlast [3, 5]: 24.0 h
MRT inf [3, 6]: 1.77 h
MRT last [3, 6]: 1.56 h
Vd ([3]; mouse, iv, 3 mg/kg, i.v., single dose, mean plasma, read-out: Vdss): 7.7 L/kg
AUC(0-inf) [3, 7]: 691 ng·h/mL
AUC(0-t) [3, 7]: 673 ng·h/mL
C0 [3, 7]: 800 ng/mL
clearance [3, 7]: 72.4 mL/min/kg
half-life [3, 7]: 1.42 h
bioavailability ([3]; mouse, plasma, oral, 30 mg/kg, p.o., single dose vs 3 mg/kg i.v.): 21.7%
MRT inf [3, 8]: 4.79 h
MRT last [3, 8]: 4.72 h
AUC(0-inf) [3, 9]: 1500 ng·h/mL
AUC(0-t) [3, 9]: 1500 ng·h/mL
Cmax [3, 9]: 249 ng/mL
Tmax [3, 9]: 1 h
half-life [3, 9]: 2.85 h
IC50 (KRAS G12C [2]): 38 nM
IC50 (MIA PaCa-2 cells): 2880 nM
SMILES: C=CC(=O)N1CCN(c2cc(OCC34CCCN3CCC4)nc3cc(-c4cccc5cccc(Cl)c45)cnc23)C[C@@H]1CC#N [Example 5, (S)-2-(1-acryloyl-4-(7-(8-chloronaphthalen-1-yl)-2-((tetrahydro-1H-pyrrolizin-7a(5H)-yl)methoxy)-1,5-naphthyridin-4-yl)piperazin-2-yl)acetonitrile]

IC50 (KRAS G12C [1]): 334 nM
IC50 (KRAS G12C [2]): 59 nM
SMILES: C=C(F)C(=O)N1CCN(c2cc(OCC34CCCN3CCC4)nc3cc(-c4cccc5cccc(Cl)c45)cnc23)C[C@@H]1CC#N [Example 6, (S)-2-(4-(7-(8-chloronaphthalen-1-yl)-2-((tetrahydro-1H-pyrrolizin-7a(5H)-yl)methoxy)-1,5-naphthyridin-4-yl)-1-(2-fluoroacryloyl)piperazin-2-yl)acetonitrile]

IC50 (KRAS G12C [2]): 31 nM
SMILES: C=CC(=O)N1CCN(c2cc(OC[C@@]34CCCN3C[C@H](F)C4)nc3cc(-c4cccc5cccc(Cl)c45)cnc23)C[C@@H]1CC#N [Example 7, 2-((S)-1-acryloyl-4-(7-(8-chloronaphthalen-1-yl)-2-(((2R,7aS)-2-fluorotetrahydro-1H-pyrrolizin-7a(5H)-yl)methoxy)-1,5-naphthyridin-4-yl)piperazin-2-yl)acetonitrile]

IC50 (KRAS G12C [2]): 65 nM
SMILES: C=C(F)C(=O)N1CCN(c2cc(OC[C@@]34CCCN3C[C@H](F)C4)nc3cc(-c4cccc5cccc(Cl)c45)cnc23)C[C@@H]1CC#N [Example 8, 2-((S)-4-(7-(8-chloronaphthalen-1-yl)-2-(((2R,7aS)-2-fluorotetrahydro-1H-pyrrolizin-7a(5H)-yl)methoxy)-1,5-naphthyridin-4-yl)-1-(2-fluoroacryloyl)piperazin-2-yl)acetonitrile]

SMILES: CN[C@@H]1C[C@H]2O[C@@](C)([C@@H]1OC)n1c3ccccc3c3c4c(c5c6ccccc6n2c5c31)C(=O)NC4 [Staurosporine, staurosporine, reference compound]
IC50 (MIA PaCa-2 cells): 249 nM
